BigSolDB 2.1

O=C(O)CN(CC(=O)O)CP(=O)(O)O
solubility (mole fraction)
Conditions	293.15 K	298.15 K	303.15 K	308.15 K	313.15 K	318.15 K	323.15 K	328.15 K	333.15 K	343.15 K
in acetone	0.000176	0.000227	0.000273	0.000352	0.000445	0.000543	–	–	–	–
in ethanol	–	3.2e-05	7.85e-05	0.000102	0.000139	0.000196	0.000359	–	0.000733	0.00176
in ethyl acetate	0.000528	0.000627	0.000791	0.000906	0.00138	0.00153	0.00176	–	0.00263	0.00419
in isopropanol	–	4.94e-05	8.19e-05	0.000128	0.000248	0.000344	0.000648	0.000898	0.00131	0.00286
in methanol	–	–	6.27e-05	8.57e-05	0.000118	0.000168	0.000243	0.000407	0.000588	–
in n-butanol	0.000113	0.000148	0.000186	0.000246	0.000299	0.000387	0.000831	–	0.00159	0.00342
in n-hexanol	0.000966	0.00107	0.00116	0.00137	0.00155	0.00197	0.00233	–	0.00337	0.00499
in n-pentanol	0.000125	0.000149	0.000186	0.00023	0.000377	0.000583	0.00105	–	0.00195	0.00392
in toluene	0.00035	0.000386	0.000427	0.000645	0.00084	0.000991	0.00157	–	0.00248	0.0039
